In PMC3501516, “Anti-Diabetic Efficacy and Impact on Amino Acid Metabolism of GRA1, a Novel Small-Molecule Glucagon Receptor Antagonist” (PLoS ONE, 2012):

Tests used:
[1] = molecular target: T1, PAC1R (pituitary adenylate cyclase-activating polypeptide receptor type 1) (Homo sapiens, UniProt P41586); test: Inhibition of agonist-stimulated cAMP production in CHO cells expressing PAC1R; assay type: cell-based; settings: PAC1-stimulated
T1 construct: expressed in transfected cells
T1 sequence (P41586 21-468): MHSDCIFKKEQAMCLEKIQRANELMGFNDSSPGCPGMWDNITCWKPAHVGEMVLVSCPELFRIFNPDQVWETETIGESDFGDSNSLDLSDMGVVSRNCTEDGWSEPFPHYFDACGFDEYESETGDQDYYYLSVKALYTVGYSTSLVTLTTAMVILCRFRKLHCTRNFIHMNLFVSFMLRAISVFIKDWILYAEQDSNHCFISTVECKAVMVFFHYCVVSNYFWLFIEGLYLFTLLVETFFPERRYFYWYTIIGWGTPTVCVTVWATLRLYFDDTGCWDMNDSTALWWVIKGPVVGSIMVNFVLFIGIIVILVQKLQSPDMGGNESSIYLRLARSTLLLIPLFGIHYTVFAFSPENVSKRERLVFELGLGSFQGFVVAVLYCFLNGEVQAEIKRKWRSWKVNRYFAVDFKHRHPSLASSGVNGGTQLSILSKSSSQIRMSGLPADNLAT
Source text: (§1) Transfected Chinese hamster ovary (CHO) cell lines were acquired and maintained as previously described, [20]. These included separate cell lines stably expressing human GCGR (hGCGR), mouse GCGR, rhesus GGCR, glucose-dependent insulinotropic peptide receptor (GIPR), GLP-1 receptor (GLP-1R), pituitary adenylate cyclase-activating polypeptide receptor type 1 (PAC1R), and vasoactive adenylate cyclase-activating polypeptide receptor type 2 (VPAC2R). Inhibition of glucagon binding to hGCGR was assayed in cell membranes prepared from the line of CHO cells that expressed the hGCGR. Functional antagonism was assayed by measuring the production of cAMP in intact CHO cells stimulated by agonists specific for their cognate receptors (i.e., glucagon for GCGR-expressing cell lines, GIP for the GIPR-expressing line, etc.). Primary human hepatocytes were obtained from In Vitro Technologies (Baltimore, MD) and glucagon-stimulated glycogenolysis was studied in these as previously described.

[2] = molecular target: T2, VPAC2R (vasoactive adenylate cyclase-activating polypeptide receptor type 2) (Homo sapiens, UniProt P41587); test: Inhibition of agonist-stimulated cAMP production in CHO cells expressing VPAC2R; assay type: cell-based; settings: VPAC2-stimulated
T2 construct: expressed in transfected cells
T2 sequence (P41587 24-438): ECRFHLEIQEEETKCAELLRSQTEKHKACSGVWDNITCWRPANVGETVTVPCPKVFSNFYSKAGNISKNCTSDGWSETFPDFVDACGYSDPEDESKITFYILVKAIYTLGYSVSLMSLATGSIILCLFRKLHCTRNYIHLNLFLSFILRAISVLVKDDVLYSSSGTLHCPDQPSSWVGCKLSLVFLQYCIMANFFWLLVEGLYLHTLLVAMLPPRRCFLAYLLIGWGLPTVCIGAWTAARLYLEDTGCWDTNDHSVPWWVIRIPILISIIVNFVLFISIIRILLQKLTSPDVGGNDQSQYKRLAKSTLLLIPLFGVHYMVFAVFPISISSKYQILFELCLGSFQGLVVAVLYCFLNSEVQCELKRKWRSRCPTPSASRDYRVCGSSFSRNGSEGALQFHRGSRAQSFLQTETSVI
Source text: as §1

in vivo = settings: hGCGR.ob/ob, mouse, 3 mg/kg

SMILES: COc1ccc2cc(-c3cc(-c4cc(C(F)(F)F)ccc4F)nn3[C@@H](C)c3ccc(C(=O)NCCC(=O)O)cc3)ccc2c1 [GRA1, N-[4-((1S)-1-{3-(2-fluoro-5-trifluoromethylphenyl)-5-[6-methoxynaphth-2-yl]-1H-pyrazol-1-yl}ethyl)benzoyl]-β-alanine]
- IC50 [1]: 7.85 µM
- IC50 [2]: 4.2 µM
- concentration at 1 h (in vivo): 1120 ± 800 nM
- concentration at 3 h (in vivo): 920 ± 100 nM
